Legend:
[1] = system: PAF-Induced Bronchoconstriction; experiment: PAF Induced Bronchoconstriction Assay; type: in vivo, guinea pig; settings: for Percent Inhib. of PAF-Induced Bronchoconstriction, mg/Kg i.v.: i.v. (dose not given), 1 minute pretreatment, PAF 1.0 μg/kg i.v.; for inhibition in vivo at 50 mg/kg: Cavia porcellus, po, 50 mg/Kg p.o., 2-hour pretreatment, read-out: Percent Inhib. of PAF-Induced Bronchoconstriction, 50 mg/Kg p.o.
Method: PAF Induced Bronchoconstriction Assay
Male animals (Hartlet Strain 400-500 g) were anesthetized with urethane (2 g/kg. i.p.). Each animals' trachea was cannulated and the guinea pigs were repirated using a Harvard small animal rodent respirator (3.0 cc stroke volume, 40 breaths per min.). Tracheal pressure was recorded from a cannula inserted in the trachea and connected to a Statham Pressure Transducer.
The jugular vein was cannulated for administering compounds. Spontaneous breathing was arrested with succinylcholine (1.2 mg/kg. i.v.) administered 2 minutes prior to intravenous injection of platelet activating factor (PAF).
For, the intravenous testing, the guinea pig is given a 5-minute pretreatment with propranolol at a dose of 0.1 mg/kg intravenously. The test compound is administered with a 1 minute pretreatment prior to intravenous challenge with PAF. The animal is than challenged with a 1.0 μg/kg intravenous dose of PAF and the change is tracheal pressure is measured.
For the oral testing, the procedure includes a 2-hour pretreatment period with the test compound administered through an oral gavage tube. Propranolol or succinylcholine and PAF are administered intravenously, and the change in tracheal pressure measured.
The change is tracheal pressure is determined by subtracting the steady state baseline achieved after administration of succinylcholine from the peak bronchoconstriction seen after challenge with PAF. The mean is calculated for each test compound and compared to the mean of the control animals to give the percent inhibition of bronchoconstriction. The standard error is calcuated as the standard error of the mean.

[2] = target: T1, PAF Binding, dog platelets (Canis lupus familiaris, UniProt A0A8I3NSH0); experiment: PAF Binding Assay (inhibition of 3H-PAF binding to washed dog platelets); settings: dog platelets, 3H-PAF, 10 minutes at room temperature; read-out: Inhib of PAF Binding IC50
T1 construct: Washed platelets were prepared by resuspending the platelet pellet once with PBS containing 1 mM EDTA; from tissue; host or cells: washed platelets from dog blood
T1 sequence (A0A8I3NSH0 1-343): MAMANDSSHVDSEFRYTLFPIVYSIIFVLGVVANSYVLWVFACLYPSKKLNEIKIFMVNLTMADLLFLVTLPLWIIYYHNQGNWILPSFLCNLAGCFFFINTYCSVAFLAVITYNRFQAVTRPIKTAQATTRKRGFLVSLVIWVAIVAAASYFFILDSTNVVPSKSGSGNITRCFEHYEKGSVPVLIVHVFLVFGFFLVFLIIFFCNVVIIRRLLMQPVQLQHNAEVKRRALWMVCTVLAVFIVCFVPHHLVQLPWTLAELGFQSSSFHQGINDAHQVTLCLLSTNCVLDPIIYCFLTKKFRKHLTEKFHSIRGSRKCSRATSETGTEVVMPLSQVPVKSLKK
Method: The binding assay was done in 400 μl polyethylene microcentrifuge tubes (Beckman) containing 50 μl of an oil mixture of 2 parts Siliconol AR200 (Serva): 1 part Silicone Fluid (Arthur H. Thomas). Buffer, standards, or analogs (150 μl total volume) were added to the tubes. Radiolabelled ^3 H-PAF (50 μl) was then added to the tubes. The reaction was started by the addition of 50 μl of dog platelets (2×10^7 platelets). The tubes were capped, inverted several times to mix, and incubated for 10 minutes at room temperature. The platelets were separated from the incubation mixture by centrifuging 1 minute in a Beckman Microfuge B centrifuge. The tip of the microfuge tube was cut off, and the platelets were washed out of the tip with 200 μl of 50% methanol (Burdick and Jackson). Aquasol (NEN, 10 ml) was added and the radioactivity in the samples was determined using an LS 8100 Beckman liquid scintillation counter linked to a Techtran tape recorder. Data was processed through an in-house computer system. Alternatively, radioactivity was determined using a Searle Mark III liquid scintillation counter linked to a Iso-Data microprocessor.
(b) Preparation of Platelets
Blood was collected from anesthesized or unanesthesized dogs into 50 ml plastic centrifuge tubes containing 3.8% sodium citrate as the anticoagulant (1 volume of citrate/9 volumes of blood). The red cells were removed by centrifugation for 15 minutes at 600 rpm (100-125 g) at room temperature. An aliquot of the supernatant platelet rich plasma (PRP) was saved for cell counting and the remainder was acidified to PH 6.5 with 0.15M citric acid. The platelet pellet was obtained after a 10 minute centrifugation at 2000 rpm (1000 g) at room temperature. Washed platelets were prepared by resuspending the platelet pellet once with PBS containing 1 mM EDTA, centrifuging as noted, and then resuspending the platelets in 0.1% BSA-PBS. An aliquot of the washed platelets was counted. Platelets used for binding assays were diluted to 2×10^7 platelets/assay tube (4×10^8 platelets/ml). Platelet counting was done using a Royco Cell-Crit 921.

Compound | IC50 [2] | Percent Inhib. of PAF-Induced Bronchoconstriction, mg/Kg i.v. [1] | inhibition in vivo at 50 mg/kg [1]
COc1ccc(C(=C/C=C/C(=O)NC(C)CCCc2ccc(C)nc2)c2ccc(OC)cc2)cc1 (racemic) [[R,S-(E)]-5,5-bis(4-methoxyphenyl)-N-[1-methyl-4-(6-methyl-3-pyridinyl)butyl]-2,4-pentadienamide] | 700 nM |  | 
CCCC(CCCc1cccnc1)NC(=O)/C=C/C=C(c1ccc(OC)cc1)c1ccc(OC)cc1 (racemic) [[R,S-(E)]-5,5-bis(4-methoxyphenyl)-N-[1-propyl-4-(3-pyridinyl)butyl]-2,4-pentadienamide] | > 1000 nM | 24 ± 13% | 
CCc1ccc(CCCC(C)NC(=O)/C=C/C=C(c2ccc(OC)cc2)c2ccc(OC)cc2)cn1 (racemic) [[R,S-(E)]-5,5-bis-(4-methoxyphenyl)-N-[1-methyl-4-(6-ethyl-3-pyridinyl)butyl]-2,4-pentadienamide] | 900 nM |  | 
COc1ccc(C(=C/C=C/C(=O)NC(CCCc2cccnc2)c2ccc(Br)cc2)c2ccc(OC)cc2)cc1 (racemic) [[R,S-(E)]-N-[1-(4-bromophenyl)-4-(3-pyridinyl)butyl]-5,5-bis(4-methoxyphenyl)2.4-pentadienamide] | > 1000 nM | 6 ± 13% | 
CCCCC(CCCc1cccnc1)NC(=O)/C=C/C=C(c1ccc(OC)cc1)c1ccc(OC)cc1 (racemic) [[R,S-(E)]-N-[1-butyl-4-(3-pyridinyl)butyl]-5,5-bis(4-methoxyphenyl)-2,4-pentadienamide] | > 1000 nM | 42 ± 7% | 
COc1ccc(C(=C/C=C/C(=O)NC(CCCc2cccnc2)C2CCCCC2)c2ccc(OC)cc2)cc1 (racemic) [[R,S-(E)]-N-[1-cyclohexyl-4-(3-pyridinyl)butyl]-5,5-bis(4-methoxyphenyl)-2,4-pentadienamide] | > 1000 nM | 11 ± 15% | 
COc1ccc(C(=C/C=C/C(=O)NC(CCCc2cccnc2)C2CCCC2)c2ccc(OC)cc2)cc1 (racemic) [[R,S-(E)]-N-[1-cyclopentyl-4-(3-pyridinyl)butyl]-5,5-bis-(4-methoxyphenyl)-2,4-pentadienamide] | > 1000 nM | 19 ± 14% | 
COc1cccc(C(=C/C=C/C(=O)NCCCCCCc2cccnc2)c2cccc(OC)c2)c1 [(E)-5,5-bis(3-Methoxyphenyl)-N-[6-(3-pyridinyl)hexyl]-2,4-pentadienamide] | 450 nM |  | 
COc1ccc(C(=C/C=C/C(=O)Nc2cccc3cnccc23)c2ccc(OC)cc2)cc1 [(E)-N-(5-isoquinolinyl)-5,5-bis(4-methoxyphenyl)-2,4-pentadienamide] | 600 nM |  | 
COc1ccc(C(=C/C=C/C(=O)NCCCc2cccc3ccncc23)c2ccc(OC)cc2)cc1 [(E)-N-[3-(8-isoquinolinyl)propyl]-5,5-bis(4-methoxyphenyl)-2,4-pentadienamide] | > 1000 nM |  | 
COc1ccc(C(=C/C=C/C(=O)NCCCCc2cncc3ccccc23)c2ccc(OC)cc2)cc1 [(E)-N-[4-(4-isoquinolinyl)butyl]-5,5-bis(4-methoxyphenyl)-2,4-pentadienamide] | > 1000 nM |  | 

Now those with a lower IC50 [2], led by results:

IC50 [2] | Compound | Percent Inhib. of PAF-Induced Bronchoconstriction, mg/Kg i.v. [1] | inhibition in vivo at 50 mg/kg [1]
400 nM | O=C(/C=C\C=C(c1ccccc1)c1ccccc1)NCCCCc1cccnc1 [(Z)-5,5-diphenyl-N-[4-(3-pyridinyl)butyl]-2,4-pentadienamide] |  | 
300 nM | COc1ccc(C(=C/C=C/C(=O)NCCCOc2cccnc2)c2ccc(OC)cc2)cc1 [(E)-5,5-bis(4-methoxyphenyl)-N-[3-[(3-pyridinyl)oxy]propyl]-2,4-pentadienamide] |  | 
100 nM | CC(CCCc1cccnc1)NC(=O)/C=C/C=C(c1ccccc1)c1ccccc1 (racemic) [[R,S-(E)]-5,5-Diphenyl-N-[1-methyl-4-(3-pyridinyl)butyl]-2,4-pentadienamide] |  | 
100 nM | C/C(=C\C=C(c1ccccc1)c1ccccc1)C(=O)NCCCCc1cccnc1 [(E)-5,5-Diphenyl-2-methyl-N-[4-(3-pyridinyl)butyl]-2,4-pentadienamide] |  | 
90 nM | CCC(CCCc1cccnc1)NC(=O)/C=C/C=C(c1ccc(OC)cc1)c1ccc(OC)cc1 (racemic) [[R,S-(E)]-N-1-ethyl-4-(3-pyridinyl)butyl]-5,5-bis(4-methoxyphenyl)-2,4-pentadienamide] | 86 ± 8% | 99 ± 1%
60 nM | COc1ccc(C(=C/C=C/C(=O)NC(CCCc2cccnc2)C2CC2)c2ccc(OC)cc2)cc1 (racemic) [[R,S-(E)]-N-[1-cyclopropyl-4-(3-pyridinyl)butyl]-5,5-bis-(4-methoxyphenyl)-2,4-pentadienamide] | 98 ± 1% | 99 ± 0.3%
55 nM | COc1ccc(/C(=C/C=C/C(=O)NCCCCc2cccnc2)c2ccccc2OC)cc1 [(2E,4Z)-5-(2-methoxyphenyl)-5-(4-methoxyphenyl)-N-[4-(3-pyridinyl)butyl]-2,4-pentadienamide] | 36 ± 6% | 
50 nM | COc1ccc(/C(=C/C=C/C(=O)NCCCCc2cccnc2)c2cccnc2)cc1 [(2E,4Z)-5-(4-methoxyphenyl)-5-(3-pyridinyl)-N-[4-(3-pyridinyl)butyl]-2,4-pentadienamide] | 78 ± 10% | 39 ± 8%
40 nM | CCCCC/C(=C/C=C/C(=O)NCCCCc1cccnc1)c1ccc(OC)cc1 [(2E,4Z)-5-(4-methoxyphenyl)-N-[4-(3-pyridinyl)butyl]-2,4-decadienamide] | 68 ± 11% | 
40 nM | COc1ccccc1C(=C/C=C/C(=O)NCCCCc1cccnc1)c1ccccc1OC [(E)-5,5-bis (2-methoxyphenyl)-N-[4-(3-pyridinyl)butyl]-2,4-pentadienamide] | 40 ± 2% | 
30 nM | COc1ccc(C(=C/C=C/C(=O)NC(C)CCCc2cccnc2C)c2ccc(OC)cc2)cc1 (racemic) [[R,S-(E)]-5,5-bis(4-methoxyphenyl)-N-[1-methyl-4-(2-methyl-3-pyridinyl)butyl]-2,4-pentadienamide] | 47 ± 10% | 
25 nM | COc1ccc(C(=C/C=C/C(=O)NCCOCc2cccnc2)c2ccc(OC)cc2)cc1 | 48 ± 7% | 
20 nM | COc1cccc(C(=C/C=C/C(=O)NC(C)CCCc2cccnc2)c2cccc(OC)c2)c1 (racemic) [[R.S-(E)]-5,5-bis(3-methoxyphenyl)-N-[1-methyl-4-(3-pyridinyl)butyl]-2,4-pentadienamide] |  | 
5 nM | CCCCC/C(=C\C=C\C(=O)NC(C)CCCc1cccnc1C)c1ccc(OC)cc1 (racemic) [[R,S-(E,E)]-5-(4-methoxyphenyl)-N-[1-methyl-4-(2-methyl-3-pyridinyl)butyl]-2,4-decadienamide] | 77 ± 5% | 

— patent US4788206A, “Pentadieneamides” (Hoffmann-La Roche Inc., priority 1987, dated 1988)
